# Experimental data: patent publication US12466807B2, “Salt and crystal form of a FAK inhibitor” (Amplia Therapeutics Limited, priority 2019, dated 2025)
# “Also recorded” adds a separate entry of the source.
# Assay: Dynamic/gravimetric vapour sorption (DVS/GVS) hygroscopicity
# Type: physicochemical
# Conditions: for Hygroscopicity, mass uptake (DVS/GVS): at 90% R.H., 25° C.
# Experimental: Approximately 10-20 mg of sample was placed into a mesh vapour sorption balance pan and loaded into the DVS-1 dynamic vapour sorption balance by Surface Measurement Systems. The sample was subjected to a ramping profile from 40-90% relative humidity (RH) at 10% increments, maintaining the sample at each step until a stable weight had been achieved (dm/dt 0.004%, minimum step length 30 minutes, maximum step length 500 minutes) at 25° C. After completion of the sorption cycle, the sample was dried using the same procedure to 0% RH and then a second sorption cycle back to 40% RH. Two cycles were performed. The weight change during the sorption/desorption cycles were plotted, allowing for the hygroscopic nature of the sample to be determined. XRPD analysis was then carried out on any solid retained.
# Approximately 10-20 mg of sample was placed into a mesh vapour sorption balance pan and loaded into an IGASorp Moisture Sorption Analyser balance by Hiden Analytical. The sample was subjected to a ramping profile from 40-90% relative humidity (RH) at 10% increments, maintaining the sample at each step until a stable weight had been achieved (98% step completion, minimum step length 30 minutes, maximum step length 60 minutes) at 25° C. After completion of the sorption cycle, the sample was dried using the same procedure to 0% RH, and finally taken back to the starting point of 40% RH. Two cycles were performed. The weight change during the sorption/desorption cycles were plotted, allowing for the hygroscopic nature of the sample to be determined.
smiles,measurement,setting,value
COc1cc(C2CCN(C)CC2)ccc1Nc1ncc(C(F)(F)F)c(CCc2ccccc2CC(N)=O)n1 [L-Tartrate],Post-GVS XRPD,"after GVS humidity cycles, listed as Formula I L-tartrate Pattern 1",no changes to the XRPD pattern; also recorded: no change in form
same,"Hygroscopicity, mass uptake (DVS/GVS)",,Uptake of 0.6 wt %
same,"Hygroscopicity, mass uptake (DVS/GVS)",listed as Formula I L-tartrate Pattern 1,0.6 wt %
same,Hygroscopic nature by GVS analysis,up to 90% RH,slightly hygroscopic
